From ChEMBL document CHEMBL1201862, “PubChem BioAssay data set” (2004)
Activity calls are given as the source filed them.

Tests used:
Streptokinase A = target: T1, Streptokinase A (Streptococcus pyogenes serotype M1, UniProt P10520); assay: S. pyogenes streptokinase expression inhibitors, potency, dose response, plasminogen activation absorbance, OD405 (AID 1914); assay type: functional, Streptococcus pyogenes M1 GAS;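 also: secreted streptokinase activity via plasminogen activation per viability signal from cell pellet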
T1 sequence (P10520 whole entry): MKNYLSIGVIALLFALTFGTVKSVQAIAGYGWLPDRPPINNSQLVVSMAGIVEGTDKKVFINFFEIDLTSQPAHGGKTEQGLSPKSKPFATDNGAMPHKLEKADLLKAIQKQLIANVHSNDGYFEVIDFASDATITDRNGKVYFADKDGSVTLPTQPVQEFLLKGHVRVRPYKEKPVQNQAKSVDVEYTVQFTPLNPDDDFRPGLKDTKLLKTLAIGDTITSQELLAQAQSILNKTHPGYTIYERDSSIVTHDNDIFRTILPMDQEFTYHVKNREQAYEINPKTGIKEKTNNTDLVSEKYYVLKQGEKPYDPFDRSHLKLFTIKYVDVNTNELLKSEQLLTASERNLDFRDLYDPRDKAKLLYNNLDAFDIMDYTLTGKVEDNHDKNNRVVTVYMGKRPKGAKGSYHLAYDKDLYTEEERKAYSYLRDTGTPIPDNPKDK

[1] = target: Protein kinase C theta type (Homo sapiens, UniProt Q04759); assay: Navigating the Kinome. Panel member name: PRKCQ; assay type: functional
[2] = target: Serine/threonine-protein kinase pim-1 (Homo sapiens, UniProt P11309); assay type: functional
[3] = target: Serine/threonine-protein kinase PAK 4 (Homo sapiens, UniProt O96013); assay type: functional;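 also: value obtained within a kinome profiling panel in which PAK4 was one of the panel members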
[4] = target: Mitogen-activated protein kinase 9 (Homo sapiens, UniProt P45984); assay type: functional;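 also: value from a kinome panel profiling assay, MAPK9 panel entry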
[5] = target: T2, Mitogen-activated protein kinase kinase kinase kinase 2 (Homo sapiens, UniProt Q12851); assay type: functional;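 also: measured as one member of a kinome-wide kinase panel, with MAP4K2 as the panel entry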
T2 sequence (Q12851 whole entry): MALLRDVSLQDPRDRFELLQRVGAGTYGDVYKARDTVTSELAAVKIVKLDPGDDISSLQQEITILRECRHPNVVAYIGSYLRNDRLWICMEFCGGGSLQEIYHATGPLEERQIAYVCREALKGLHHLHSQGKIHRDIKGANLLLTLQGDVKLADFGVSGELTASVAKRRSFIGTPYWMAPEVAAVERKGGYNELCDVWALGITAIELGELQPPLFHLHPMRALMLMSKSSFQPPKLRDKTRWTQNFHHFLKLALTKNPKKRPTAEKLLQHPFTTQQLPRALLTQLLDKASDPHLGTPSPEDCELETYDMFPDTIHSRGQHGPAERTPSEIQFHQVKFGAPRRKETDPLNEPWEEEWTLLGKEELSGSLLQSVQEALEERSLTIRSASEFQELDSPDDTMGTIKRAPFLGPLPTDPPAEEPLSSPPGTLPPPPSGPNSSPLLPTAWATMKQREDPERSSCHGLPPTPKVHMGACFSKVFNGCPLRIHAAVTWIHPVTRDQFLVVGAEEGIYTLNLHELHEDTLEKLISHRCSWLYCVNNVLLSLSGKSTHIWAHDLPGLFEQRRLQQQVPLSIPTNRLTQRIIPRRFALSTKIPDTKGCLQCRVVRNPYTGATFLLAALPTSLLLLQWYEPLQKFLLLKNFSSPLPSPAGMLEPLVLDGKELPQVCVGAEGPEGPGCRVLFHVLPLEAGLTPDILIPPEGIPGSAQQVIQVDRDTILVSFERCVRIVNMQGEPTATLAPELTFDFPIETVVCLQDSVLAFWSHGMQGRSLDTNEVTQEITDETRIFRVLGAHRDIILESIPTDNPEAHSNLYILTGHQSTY

[6] = target: Tyrosine-protein kinase ABL1 (Homo sapiens, UniProt P00519); assay type: functional
[7] = target: Rho-associated protein kinase 1 (Homo sapiens, UniProt Q13464); assay type: functional;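 also: measured within a broad kinome-wide panel profiling many kinases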
[8] = target: Vascular endothelial growth factor receptor 1 (Homo sapiens, UniProt P17948); assay type: functional;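 also: measured within a kinome-wide profiling panel, FLT1 as the panel member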
[9] = target: BDNF/NT-3 growth factors receptor (Homo sapiens, UniProt Q16620); assay type: functional;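 also: NTRK2 measured as one member of a broad kinome-wide kinase profiling panel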
[10] = target: Macrophage colony-stimulating factor 1 receptor (Homo sapiens, UniProt P07333); assay type: functional;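 also: value comes from the Navigating the Kinome screening panel, CSF1R member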
[11] = target: Dual specificity mitogen-activated protein kinase kinase 2 (Homo sapiens, UniProt P36507); assay: Navigating the Kinome. Panel member name: MAP2K2; assay type: functional
[12] = target: Dual specificity tyrosine-phosphorylation-regulated kinase 1A (Homo sapiens, UniProt Q13627); assay type: functional;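 also: measured against DYRK1A as one member of a broad kinome profiling panel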
[13] = target: T3, Inhibitor of nuclear factor kappa-B kinase subunit epsilon (Homo sapiens, UniProt Q14164); assay: Navigating the Kinome. Panel member name: IKBKE; assay type: functional
T3 sequence (Q14164 whole entry): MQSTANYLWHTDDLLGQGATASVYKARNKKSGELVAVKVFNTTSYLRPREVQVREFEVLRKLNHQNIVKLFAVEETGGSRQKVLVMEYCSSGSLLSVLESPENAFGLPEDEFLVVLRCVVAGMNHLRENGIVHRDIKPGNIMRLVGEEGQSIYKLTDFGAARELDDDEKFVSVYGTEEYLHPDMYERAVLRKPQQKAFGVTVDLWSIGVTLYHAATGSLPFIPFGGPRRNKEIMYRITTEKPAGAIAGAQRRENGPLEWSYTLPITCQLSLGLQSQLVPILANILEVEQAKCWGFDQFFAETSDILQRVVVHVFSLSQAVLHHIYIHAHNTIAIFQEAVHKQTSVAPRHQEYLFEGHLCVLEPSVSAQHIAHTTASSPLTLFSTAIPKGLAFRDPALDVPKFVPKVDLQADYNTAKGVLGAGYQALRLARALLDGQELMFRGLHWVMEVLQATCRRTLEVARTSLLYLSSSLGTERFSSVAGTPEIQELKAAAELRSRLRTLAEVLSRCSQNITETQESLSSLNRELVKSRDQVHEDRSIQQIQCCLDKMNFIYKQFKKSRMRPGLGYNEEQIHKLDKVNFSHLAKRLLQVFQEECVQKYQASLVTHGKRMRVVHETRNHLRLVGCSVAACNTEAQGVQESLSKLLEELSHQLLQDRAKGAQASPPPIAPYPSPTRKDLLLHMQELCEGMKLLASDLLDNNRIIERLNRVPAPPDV

Chain of Mitogen-activated protein kinase 9 (P45984 whole entry): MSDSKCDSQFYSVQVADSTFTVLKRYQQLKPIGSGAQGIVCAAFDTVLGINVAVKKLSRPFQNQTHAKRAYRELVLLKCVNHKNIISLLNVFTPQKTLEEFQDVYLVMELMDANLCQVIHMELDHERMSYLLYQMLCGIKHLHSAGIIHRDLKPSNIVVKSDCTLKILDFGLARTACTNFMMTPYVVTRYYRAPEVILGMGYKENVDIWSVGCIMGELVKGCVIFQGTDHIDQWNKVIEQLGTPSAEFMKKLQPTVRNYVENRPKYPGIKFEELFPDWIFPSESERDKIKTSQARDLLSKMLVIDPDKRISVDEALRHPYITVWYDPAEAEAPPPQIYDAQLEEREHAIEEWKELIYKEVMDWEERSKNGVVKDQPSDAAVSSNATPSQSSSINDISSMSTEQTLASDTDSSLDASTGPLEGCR
Chain of Tyrosine-protein kinase ABL1 (P00519 whole entry): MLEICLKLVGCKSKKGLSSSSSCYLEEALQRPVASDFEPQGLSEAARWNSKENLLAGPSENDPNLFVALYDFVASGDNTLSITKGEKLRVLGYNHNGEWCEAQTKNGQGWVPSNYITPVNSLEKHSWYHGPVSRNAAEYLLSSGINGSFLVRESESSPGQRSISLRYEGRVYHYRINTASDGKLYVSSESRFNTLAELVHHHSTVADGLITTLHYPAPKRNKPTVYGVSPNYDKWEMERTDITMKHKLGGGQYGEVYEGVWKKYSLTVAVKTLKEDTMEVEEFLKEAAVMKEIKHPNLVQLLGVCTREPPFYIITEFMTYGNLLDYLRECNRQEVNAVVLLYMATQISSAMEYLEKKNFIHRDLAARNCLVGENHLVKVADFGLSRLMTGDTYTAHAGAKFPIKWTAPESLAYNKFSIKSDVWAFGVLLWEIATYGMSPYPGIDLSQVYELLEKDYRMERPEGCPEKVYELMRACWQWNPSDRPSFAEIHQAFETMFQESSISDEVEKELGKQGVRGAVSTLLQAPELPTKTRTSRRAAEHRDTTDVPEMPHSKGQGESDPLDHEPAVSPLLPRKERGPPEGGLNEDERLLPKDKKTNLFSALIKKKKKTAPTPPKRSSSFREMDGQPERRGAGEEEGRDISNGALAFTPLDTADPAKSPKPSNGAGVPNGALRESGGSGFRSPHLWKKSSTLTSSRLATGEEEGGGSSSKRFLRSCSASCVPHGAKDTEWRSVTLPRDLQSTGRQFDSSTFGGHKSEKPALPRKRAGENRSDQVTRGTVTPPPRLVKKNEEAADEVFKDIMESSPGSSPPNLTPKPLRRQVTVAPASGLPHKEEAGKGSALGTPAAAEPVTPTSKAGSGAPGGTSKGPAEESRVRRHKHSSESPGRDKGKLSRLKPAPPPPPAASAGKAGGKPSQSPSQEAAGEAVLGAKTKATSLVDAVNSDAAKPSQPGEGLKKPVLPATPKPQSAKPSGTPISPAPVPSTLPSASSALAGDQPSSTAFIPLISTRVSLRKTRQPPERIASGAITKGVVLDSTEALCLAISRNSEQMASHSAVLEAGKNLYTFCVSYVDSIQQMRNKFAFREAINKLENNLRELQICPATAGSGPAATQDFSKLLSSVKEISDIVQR
Chain of Macrophage colony-stimulating factor 1 receptor (P07333 whole entry): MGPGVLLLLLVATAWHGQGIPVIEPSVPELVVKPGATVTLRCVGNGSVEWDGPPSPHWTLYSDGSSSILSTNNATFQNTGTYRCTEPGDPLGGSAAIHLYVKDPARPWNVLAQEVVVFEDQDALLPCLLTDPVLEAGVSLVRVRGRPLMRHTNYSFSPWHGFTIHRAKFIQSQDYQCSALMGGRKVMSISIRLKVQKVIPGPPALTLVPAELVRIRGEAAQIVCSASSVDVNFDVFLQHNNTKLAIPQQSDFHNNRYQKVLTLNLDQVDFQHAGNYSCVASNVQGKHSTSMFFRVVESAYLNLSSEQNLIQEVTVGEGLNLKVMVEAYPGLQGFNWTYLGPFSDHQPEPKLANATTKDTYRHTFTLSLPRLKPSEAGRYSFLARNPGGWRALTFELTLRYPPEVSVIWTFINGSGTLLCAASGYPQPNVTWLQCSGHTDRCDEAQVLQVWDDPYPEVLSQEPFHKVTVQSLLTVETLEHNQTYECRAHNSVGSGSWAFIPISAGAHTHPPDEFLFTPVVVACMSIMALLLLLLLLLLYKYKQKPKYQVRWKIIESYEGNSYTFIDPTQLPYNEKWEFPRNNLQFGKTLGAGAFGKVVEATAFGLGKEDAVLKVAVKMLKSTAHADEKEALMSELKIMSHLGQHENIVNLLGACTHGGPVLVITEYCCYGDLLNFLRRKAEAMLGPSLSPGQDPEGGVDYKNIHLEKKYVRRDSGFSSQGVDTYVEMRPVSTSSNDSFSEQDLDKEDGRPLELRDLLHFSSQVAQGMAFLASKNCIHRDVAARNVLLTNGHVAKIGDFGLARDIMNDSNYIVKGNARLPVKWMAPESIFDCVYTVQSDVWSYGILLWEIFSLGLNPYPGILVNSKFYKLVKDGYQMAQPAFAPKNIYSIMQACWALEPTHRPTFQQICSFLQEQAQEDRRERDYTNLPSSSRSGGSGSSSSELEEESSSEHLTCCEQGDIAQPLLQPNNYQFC
Chain of Serine/threonine-protein kinase PAK 4 (O96013 whole entry): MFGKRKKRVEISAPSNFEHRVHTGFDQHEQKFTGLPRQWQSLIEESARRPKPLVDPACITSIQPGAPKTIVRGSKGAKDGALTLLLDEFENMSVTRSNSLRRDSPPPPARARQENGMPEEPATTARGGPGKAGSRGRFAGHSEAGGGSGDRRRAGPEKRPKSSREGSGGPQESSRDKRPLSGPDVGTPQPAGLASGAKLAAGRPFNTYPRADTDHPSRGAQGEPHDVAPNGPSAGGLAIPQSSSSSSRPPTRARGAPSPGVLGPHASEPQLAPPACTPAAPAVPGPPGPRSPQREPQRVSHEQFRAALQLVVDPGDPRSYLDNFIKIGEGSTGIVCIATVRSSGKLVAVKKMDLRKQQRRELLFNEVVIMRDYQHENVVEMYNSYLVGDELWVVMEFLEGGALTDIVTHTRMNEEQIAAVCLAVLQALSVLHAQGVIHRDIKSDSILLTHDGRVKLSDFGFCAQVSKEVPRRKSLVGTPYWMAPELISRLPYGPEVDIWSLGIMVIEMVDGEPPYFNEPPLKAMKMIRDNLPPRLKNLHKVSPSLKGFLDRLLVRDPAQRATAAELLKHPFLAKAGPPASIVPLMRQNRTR
Chain of Serine/threonine-protein kinase pim-1 (P11309 whole entry): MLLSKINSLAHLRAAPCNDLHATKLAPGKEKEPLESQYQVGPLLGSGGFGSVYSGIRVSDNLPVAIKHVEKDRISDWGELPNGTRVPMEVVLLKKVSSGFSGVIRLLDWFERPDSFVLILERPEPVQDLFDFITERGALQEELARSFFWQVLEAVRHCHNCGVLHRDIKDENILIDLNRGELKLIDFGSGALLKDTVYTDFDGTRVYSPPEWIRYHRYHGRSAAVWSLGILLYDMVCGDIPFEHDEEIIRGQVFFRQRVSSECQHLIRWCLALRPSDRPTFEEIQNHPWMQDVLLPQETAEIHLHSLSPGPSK
Chain of Protein kinase C theta type (Q04759 whole entry): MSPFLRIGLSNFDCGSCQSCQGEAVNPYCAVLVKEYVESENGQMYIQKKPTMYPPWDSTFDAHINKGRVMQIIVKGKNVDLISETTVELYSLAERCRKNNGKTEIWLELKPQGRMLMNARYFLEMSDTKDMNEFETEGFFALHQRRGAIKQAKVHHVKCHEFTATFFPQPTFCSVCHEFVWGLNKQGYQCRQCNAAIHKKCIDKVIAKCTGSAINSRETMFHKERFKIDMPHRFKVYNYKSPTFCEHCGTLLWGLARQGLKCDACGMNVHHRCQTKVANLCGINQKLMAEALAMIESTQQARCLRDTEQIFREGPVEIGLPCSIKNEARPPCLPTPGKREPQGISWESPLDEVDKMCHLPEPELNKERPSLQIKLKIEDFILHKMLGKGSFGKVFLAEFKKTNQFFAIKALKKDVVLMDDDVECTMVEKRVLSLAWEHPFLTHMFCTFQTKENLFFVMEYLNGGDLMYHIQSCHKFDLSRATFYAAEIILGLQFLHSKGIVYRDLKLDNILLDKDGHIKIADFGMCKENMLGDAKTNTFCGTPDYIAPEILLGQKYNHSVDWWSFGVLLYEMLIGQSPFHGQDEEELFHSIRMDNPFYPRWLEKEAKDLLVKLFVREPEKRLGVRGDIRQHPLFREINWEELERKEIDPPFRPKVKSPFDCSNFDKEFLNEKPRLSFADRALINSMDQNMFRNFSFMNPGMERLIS
Chain of Dual specificity mitogen-activated protein kinase kinase 2 (P36507 whole entry): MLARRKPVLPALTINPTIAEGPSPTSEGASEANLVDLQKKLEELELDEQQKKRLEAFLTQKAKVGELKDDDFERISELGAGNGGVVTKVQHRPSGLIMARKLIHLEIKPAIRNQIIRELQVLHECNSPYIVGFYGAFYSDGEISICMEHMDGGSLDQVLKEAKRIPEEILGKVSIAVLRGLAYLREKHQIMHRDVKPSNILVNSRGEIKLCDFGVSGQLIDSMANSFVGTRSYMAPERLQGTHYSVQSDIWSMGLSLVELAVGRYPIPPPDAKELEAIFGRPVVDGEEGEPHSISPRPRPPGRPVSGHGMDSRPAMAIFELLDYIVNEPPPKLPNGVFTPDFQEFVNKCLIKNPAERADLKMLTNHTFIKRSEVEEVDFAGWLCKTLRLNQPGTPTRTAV

SMILES | EC50 (Streptokinase A) | Ki [1] | Ki [2] | Ki [3] | Ki [4] | Ki [5] | Ki [6] | Ki [7] | Ki [8] | Ki [9] | Ki [10] | Ki [11] | Ki [12] | Ki [13] | further results
CCOC(=O)c1ccc(NC2=CC(=O)C(=O)c3ccccc32)cc1 | 9930 nM (active) | – | – | – | – | – | – | – | – | – | – | – | – | – | –
O=C(O)C1CN(Cc2ccc(OCc3ccccc3)cc2Cl)C1 | – | > 2510 nM (inactive) | > 6310 nM (inactive) | > 5010 nM (inactive) | > 3980 nM (inactive) | > 2510 nM (inactive) | > 2510 nM (inactive) | > 3980 nM (inactive) | > 3980 nM (inactive) | > 3980 nM (inactive) | > 2510 nM (inactive) | > 3980 nM (inactive) | > 2000 nM (inactive) | > 3160 nM (inactive) | –
NC1CCC(Nc2nc(Cl)cc(-c3c[nH]c4ncccc34)n2)CC1 (stereo not given) | – | 0.794 nM (active) | 126 nM (active) | 39.8 nM (active) | 3160 nM (active) | 63.1 nM (active) | 1580 nM (active) | 1.26 nM (active) | > 3980 nM (inactive) | 794 nM (active) | 126 nM (active) | 31.6 nM (active) | 25.1 nM (active) | 2510 nM (active) | pKi [1]: 9.1; pKi [2]: 6.9; pKi [3]: 7.4; pKi [4]: 5.5; pKi [5]: 7.2; pKi [6]: 5.8; pKi [7]: 8.9; pKi [9]: 6.1; pKi [10]: 6.9; pKi [11]: 7.5; pKi [12]: 7.6; pKi [13]: 5.6
CCCCCCCCCCCCCCCC[N+](C)(C)C | 19600 nM (active) | – | – | – | – | – | – | – | – | – | – | – | – | – | –
